Key:
Fecal recovery = type: in vivo, Sprague Dawley rats; settings: male, Sprague-Dawley, faeces; rat, 1 mg/kg oral gavage, collection time 48 h
Experimental: Three male Sprague Dawley rats were administered 1 mg/kg test compound by oral gavage. Feces were collected from study animals from 0-48 or 0-72 hours after dosing, dried by lyophilization, and homogenized. Replicate aliquots of 40-60 mg each were subjected to extraction/protein precipitation with 7:1 acetonitrile:water and centrifuged. Supernatants were diluted 1:10 in 50:50 acetonitrile:water prior to analysis by LC-MS/MS. Compound concentrations, determined by interpolation from a standard calibration curve prepared in blank feces matrix, were converted to the percentage of dosed material recovered by taking into account the total collected fecal matter. The percent recovery for each rat was reported as the mean of the calculations from replicate samples. The overall percent recovery (Fecal Recovery [%]) was reported as the mean percent recovery from three rats. Accurate quality control sample recoveries were confirmed in each run, and extraction efficiency was periodically verified.

Rat NHE-3 [1] = molecular target: T1, Rat NHE-3 (Rattus norvegicus, UniProt P26433); assay: Cell-based assay of NHE-3 activity (rat NHE-3 prompt inhibition); settings: OK cells with rat NHE-3 gene, compound present during pH recovery
T1 construct: expressed in transfected cells; host or cells: Opossum kidney (OK) cells (ATCC), transfected by electroporation
Outline: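 Opossum kidney cells electroporated with rat or human NHE-3, loaded with 5 μM BCECF-AM in NH4Cl-HEPES pH 7.4 for 30 min at RT, then acidified 10 min in Na+-free choline HEPES. Na+-dependent pH recovery rates from BCECF fluorescence, averaged over ≥2 replicates, gave pIC50.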

[2] = system: absorption of sodium from the intestinal lumen; assay: Inhibition of intestinal sodium absorption (urinary sodium and fecal form); type: in vivo, Sprague-Dawley rats; settings: rat; for response vs control in vivo at 3 mg/kg: 3 mg/kg oral gavage, urine 16 h post-dose, asterisks = significance vs vehicle (*P<0.05, **P<0.01, ***P<0.001), read-out: uNa (% of vehicle)
Outline: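 Sprague-Dawley rats (8 weeks, n=6) dosed by oral gavage with compound or water vehicle (10 mL/kg) in late afternoon, then housed in metabolic cages. Over 16 h, urinary sodium measured by ion chromatography and expressed as % of vehicle mean; fecal form scored 1–5, averaged from two observations.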

Rat NHE-3 [3] = molecular target: T1, Rat NHE-3; assay: Cell-based assay of NHE-3 activity (persistent inhibition, after washout); settings: OK cells with rat NHE-3 gene, 60 min incubation, recovery initiated 40 min after compound washout
Outline: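 OK cells transiently expressing rat NHE-3 were exposed to 0-30 μM compound in NaCl-HEPES pH 7.4 for 60 min, then washed free of drug before NH4Cl/BCECF-AM loading and acid-loading in Na+-free choline buffer. Na+-dependent pH recovery rates (mean of ≥2 replicates) gave pIC50.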

T1 sequence (P26433 29-831): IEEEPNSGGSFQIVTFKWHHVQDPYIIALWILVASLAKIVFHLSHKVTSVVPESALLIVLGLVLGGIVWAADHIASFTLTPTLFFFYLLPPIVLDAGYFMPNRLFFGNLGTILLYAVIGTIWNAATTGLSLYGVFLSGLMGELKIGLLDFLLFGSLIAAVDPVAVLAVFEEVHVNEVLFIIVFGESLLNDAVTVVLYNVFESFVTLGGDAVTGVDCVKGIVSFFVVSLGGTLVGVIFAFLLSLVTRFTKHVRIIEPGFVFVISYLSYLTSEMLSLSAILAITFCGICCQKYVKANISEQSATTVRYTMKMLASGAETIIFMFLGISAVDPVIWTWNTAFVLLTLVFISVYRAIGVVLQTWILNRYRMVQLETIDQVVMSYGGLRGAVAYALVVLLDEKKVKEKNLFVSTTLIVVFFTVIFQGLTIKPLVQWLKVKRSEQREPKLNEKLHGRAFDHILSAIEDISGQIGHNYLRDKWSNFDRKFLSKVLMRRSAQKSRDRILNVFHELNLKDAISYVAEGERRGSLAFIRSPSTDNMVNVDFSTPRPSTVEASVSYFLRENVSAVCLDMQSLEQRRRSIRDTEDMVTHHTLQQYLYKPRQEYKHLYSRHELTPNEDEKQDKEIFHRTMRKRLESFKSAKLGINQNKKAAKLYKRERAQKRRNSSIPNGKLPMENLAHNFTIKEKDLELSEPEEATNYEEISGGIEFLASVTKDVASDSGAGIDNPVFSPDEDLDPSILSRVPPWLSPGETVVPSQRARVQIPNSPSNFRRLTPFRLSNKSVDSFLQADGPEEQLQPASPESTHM

Rat NHE3 pIC50 (prompt) (Rat NHE-3 [1])	Rat NHE3 pIC50 (persistent) (Rat NHE-3 [3])	Compound	dose excreted (Fecal recovery)	IC50 (Rat NHE-3 [1]; read-out: Rat NHE3 pIC50 (prompt) (converted))	response vs control in vivo at 3 mg/kg [2]	IC50 (Rat NHE-3 [3]; read-out: Rat NHE3 pIC50 (persistent) (converted))	FFS ([2]; fecal form score, scale 1 (normal pellet) to 5 (liquid fecal streams), group average, 3 mg/kg oral, 16 h post-dose, vehicle = 1)
–	–	CN1Cc2c(Cl)cc(Cl)cc2[C@H](c2cccc(S(=O)(=O)NCCOCCOCCNC(=O)NCCCN(CCCNC(=O)NCCOCCOCCNS(=O)(=O)c3cccc([C@@H]4CN(C)Cc5c(Cl)cc(Cl)cc54)c3)CCCNC(=O)NCCOCCOCCNS(=O)(=O)c3cccc([C@@H]4CN(C)Cc5c(Cl)cc(Cl)cc54)c3)c2)C1 [Example 43, (S)—N,N′-(15-(1-(3-((S)-6,8-dichloro-2-methyl-1,2,3,4-tetrahydroisoquinolin-4-yl)phenylsulfonamido)-10-oxo-3,6-dioxa-9,11-diazatetradecan-14-yl)-10,20-dioxo-3,6,24,27-tetraoxa-9,11,15,19,21-pentaazanonacosane-1,29-diyl)bis(3-((S)-6,8-dichloro-2-methyl-1,2,3,4-tetrahydroisoquinolin-4-yl)benzenesulfonamide)]	53.8%	100 to 10000 nM	35 to 75%	< 100 nM	–
B (B NHE3 pIC50 5-7)	C (C NHE3 pIC50 > 7)	CN1Cc2c(Cl)cc(Cl)cc2[C@H](c2cccc(S(=O)(=O)NCCOCCOCCN(C)C(=O)NCCCN(CCCNC(=O)N(C)CCOCCOCCNS(=O)(=O)c3cccc([C@@H]4CN(C)Cc5c(Cl)cc(Cl)cc54)c3)CCCNC(=O)N(C)CCOCCOCCNS(=O)(=O)c3cccc([C@@H]4CN(C)Cc5c(Cl)cc(Cl)cc54)c3)c2)C1 [Example 55]	64.6%	–	35 to 75%	–	2
B (B NHE3 pIC50 5-7)	C (C NHE3 pIC50 > 7)	CN1Cc2c(Cl)cc(Cl)cc2[C@H](c2cccc(S(=O)(=O)NCCOCCOCCNC(=O)NCCCC(CCCNC(=O)NCCOCCOCCNS(=O)(=O)c3cccc([C@@H]4CN(C)Cc5c(Cl)cc(Cl)cc54)c3)(CCCNC(=O)NCCOCCOCCNS(=O)(=O)c3cccc([C@@H]4CN(C)Cc5c(Cl)cc(Cl)cc54)c3)NC(=O)NC[C@H](O)[C@@H](O)[C@H](O)[C@H](O)CO)c2)C1 [Example 65]	112%	–	35 to 75%	–	–

Compound	Rat NHE3 pIC50 (prompt) (Rat NHE-3 [1])	Rat NHE3 pIC50 (persistent) (Rat NHE-3 [3])	dose excreted (Fecal recovery)	IC50 (Rat NHE-3 [1]; read-out: Rat NHE3 pIC50 (prompt) (converted))	response vs control in vivo at 3 mg/kg [2]	IC50 (Rat NHE-3 [3]; read-out: Rat NHE3 pIC50 (persistent) (converted))	FFS ([2]; fecal form score, scale 1 (normal pellet) to 5 (liquid fecal streams), group average, 3 mg/kg oral, 16 h post-dose, vehicle = 1)
CN1Cc2c(Cl)cc(Cl)cc2[C@H](c2cccc(S(=O)(=O)NCCOCCOCCNC(=O)NCCCC(N)(CCCNC(=O)NCCOCCOCCNS(=O)(=O)c3cccc([C@@H]4CN(C)Cc5c(Cl)cc(Cl)cc54)c3)CCCNC(=O)NCCOCCOCCNS(=O)(=O)c3cccc([C@@H]4CN(C)Cc5c(Cl)cc(Cl)cc54)c3)c2)C1 [Example 62]	B (B NHE3 pIC50 5-7)	C (C NHE3 pIC50 > 7)	81.5%	–	35 to 75%	–	–

Reference: patent US10385024B2, “Compounds and methods for inhibiting NHE-mediated antiport in the treatment of disorders associated with fluid retention or salt overload and gastrointestinal tract disorders” (Ardelyx, Inc., priority 2012, dated 2019)
